Reference: the supplement of paper PMC10883282

Assays:
Experiment in all cases: relative viability vs DMSO control (72 h) (fraction); higher = more viable cells
G401 = test system: G401
How it was run: (§1)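 A 5 µM positive control and 0.1% DMSO vehicle ran alongside sarcoma cell lines seeded in 384-well plates to reach 80–90% confluence. Serially diluted compound, 2.5 µl from source plates of 10 mM to 0.0002 mM, was added after 24 h, and the plates were held 72 h at 37 °C, 5% CO2. Relative viability was worked out from ATPLite readings as percent growth averaged over up to triplicate wells. The values were rescaled so that 1 is full and 0 is none.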

KHOS-240S = test system: KHOS-240S
How it was run: as §1

SW1353 = test system: SW1353
How it was run: as §1

SYO-1 = test system: SYO-1
How it was run: as §1

SW982 = test system: SW982
How it was run: as §1

HT1080 = test system: HT1080
How it was run: as §1

KHOS-NP = test system: KHOS-NP
How it was run: as §1

SW872 = test system: SW872
How it was run: as §1

SW684 = test system: SW684
How it was run: as §1

RD-ES = test system: RD-ES
How it was run: as §1

A204 = test system: A204
How it was run: as §1

SK-ES-1 = test system: SK-ES-1
How it was run: as §1

CN1CCN(c2ccc(C(=O)Nc3n[nH]c4ccc(Cc5cc(F)cc(F)c5)cc34)c(NC3CCOCC3)c2)CC1 [Entrectinib]
Settings	relative viability
A204, 0.00017 µM	1.05
A204, 0.00051 µM	1.06
A204, 0.00152 µM	1.04
A204, 0.00457 µM	1.06
A204, 0.01372 µM	1.09
A204, 0.04115 µM	1.04
A204, 0.1235 µM	1.02
A204, 0.3704 µM	1.05
A204, 1.111 µM	1.04
A204, 3.333 µM	0.865
A204, 10 µM	0.228
G401, 0.00017 µM	1.04
G401, 0.00051 µM	1.01
G401, 0.00152 µM	1.057
G401, 0.00457 µM	1.07
G401, 0.01372 µM	1.03
G401, 0.04115 µM	1.01
G401, 0.1235 µM	1.011
G401, 0.3704 µM	0.979
G401, 1.111 µM	0.87
G401, 3.333 µM	0.651
G401, 10 µM	0.163
HT1080, 0.00017 µM	1.095
HT1080, 0.00051 µM	1.13
HT1080, 0.00152 µM	1.1
HT1080, 0.00457 µM	1.08
HT1080, 0.01372 µM	1.08
HT1080, 0.04115 µM	1.09
HT1080, 0.1235 µM	1.08
HT1080, 0.3704 µM	1.06
HT1080, 1.111 µM	1.06
HT1080, 3.333 µM	0.952
HT1080, 10 µM	0.349
KHOS-240S, 0.00017 µM	1.06
KHOS-240S, 0.00051 µM	1.061
KHOS-240S, 0.00152 µM	1.1
KHOS-240S, 0.00457 µM	1.08
KHOS-240S, 0.01372 µM	1.08
KHOS-240S, 0.04115 µM	1.07
KHOS-240S, 0.1235 µM	1.08
KHOS-240S, 0.3704 µM	1
KHOS-240S, 1.111 µM	0.939
KHOS-240S, 3.333 µM	0.617
KHOS-240S, 10 µM	0.0159
KHOS-NP, 0.00017 µM	1.08
KHOS-NP, 0.00051 µM	1.1
KHOS-NP, 0.00152 µM	1.07
KHOS-NP, 0.00457 µM	1.08
KHOS-NP, 0.01372 µM	1.06
KHOS-NP, 0.04115 µM	1.05
KHOS-NP, 0.1235 µM	1.04
KHOS-NP, 0.3704 µM	1.03
KHOS-NP, 1.111 µM	1.01
KHOS-NP, 3.333 µM	0.98
KHOS-NP, 10 µM	0.602
RD-ES, 0.00017 µM	0.991
RD-ES, 0.00051 µM	1.02
RD-ES, 0.00152 µM	0.986
RD-ES, 0.00457 µM	0.986
RD-ES, 0.01372 µM	0.992
RD-ES, 0.04115 µM	0.997
RD-ES, 0.1235 µM	0.99
RD-ES, 0.3704 µM	0.929
RD-ES, 1.111 µM	0.776
RD-ES, 3.333 µM	0.552
RD-ES, 10 µM	0.0781
SK-ES-1, 0.00017 µM	1.09
SK-ES-1, 0.00051 µM	1.04
SK-ES-1, 0.00152 µM	1.05
SK-ES-1, 0.00457 µM	1.06
SK-ES-1, 0.01372 µM	1.03
SK-ES-1, 0.04115 µM	1.1
SK-ES-1, 0.1235 µM	1.05
SK-ES-1, 0.3704 µM	0.959
SK-ES-1, 1.111 µM	0.844
SK-ES-1, 3.333 µM	0.465
SK-ES-1, 10 µM	0.105
SW684, 0.00017 µM	1.14
SW684, 0.00051 µM	1.17
SW684, 0.00152 µM	1.14
SW684, 0.00457 µM	1.2
SW684, 0.01372 µM	1.15
SW684, 0.04115 µM	1.15
SW684, 0.1235 µM	1.16
SW684, 0.3704 µM	1.12
SW684, 1.111 µM	1.1
SW684, 3.333 µM	0.971
SW684, 10 µM	-0.0109
SW872, 0.00017 µM	1.11
SW872, 0.00051 µM	1.09
SW872, 0.00152 µM	1.1
SW872, 0.00457 µM	1.07
SW872, 0.01372 µM	1.05
SW872, 0.04115 µM	1.05
SW872, 0.1235 µM	1.03
SW872, 0.3704 µM	0.961
SW872, 1.111 µM	0.887
SW872, 3.333 µM	0.66
SW872, 10 µM	0.218
SW982, 0.00017 µM	1.03
SW982, 0.00051 µM	1.05
SW982, 0.00152 µM	1.05
SW982, 0.00457 µM	1.07
SW982, 0.01372 µM	1.05
SW982, 0.04115 µM	1.06
SW982, 0.1235 µM	1.06
SW982, 0.3704 µM	0.991
SW982, 1.111 µM	0.865
SW982, 3.333 µM	0.548
SW982, 10 µM	0.0591
SW1353, 0.00017 µM	1.04
SW1353, 0.00051 µM	1.05
SW1353, 0.00152 µM	1.01
SW1353, 0.00457 µM	1.01
SW1353, 0.01372 µM	0.976
SW1353, 0.04115 µM	0.985
SW1353, 0.1235 µM	0.9886
SW1353, 0.3704 µM	0.9517
SW1353, 1.111 µM	0.953
SW1353, 3.333 µM	0.782
SW1353, 10 µM	0.0075
SYO-1, 0.00017 µM	1.03
SYO-1, 0.00051 µM	0.998
SYO-1, 0.00152 µM	1.02
SYO-1, 0.00457 µM	0.953
SYO-1, 0.01372 µM	0.979
SYO-1, 0.04115 µM	0.948
SYO-1, 0.1235 µM	0.925
SYO-1, 0.3704 µM	0.851
SYO-1, 1.111 µM	0.765
SYO-1, 3.333 µM	0.529
SYO-1, 10 µM	-0.0142
